Values of other authors as cited in article PMC7179723, “Self-Assembly of Minimal Peptoid Sequences” (ACS Macro Letters, 2020).

Settings: assembly requires dilution from an organic solution; literature statement
From the text: Control of self-assembly using sequence-specific polymers such as peptides and their mimics is a powerful approach to generating functional nanomaterials. Very short self-assembling peptides and their mimics (e.g., ≤ 5 residues) are of special interest since they are more easily scalable and they lead to insight into assembly requirements.[1] Their discovery is nontrivial since assembly propensity (e.g., hydrophobic interactions and hydrogen bonding) and favorable solvent (water) interactions must be balanced among just a few residues.[1]−[3] […] Alternatively, lamellar nanostructures were observed when the dipeptoid was precipitated in water from an ACN solution.

**Q.** Which solubility in water does the source give for diphenylalanine [FF] here?
**A.** Its solubility in water is “not directly soluble in water”.
